In patent US9498483B2, “2,3,5-trisubstituted thiophene compounds and uses thereof” (priority 2010, dated 2016):

What was measured:
[1] = system: HCV replicon I389luc-ubi-neo/NS3-3′/ET in ET (Huh-lucubineo-ET) cells; experiment: Replicon assay (Biological Example 2), luciferase readout; type: cell-based; conditions: Hepatitis C virus
In short: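 EC50 values come from Hill fits of % inhibition of replicon-driven firefly luciferase, relative to no-compound wells. Compounds were serially diluted (10 points, 3-fold, 0.1 nM–50 μM final, 0.5% DMSO) onto ET replicon cells and read after 48 h.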

HCV polymerase = target: T1, HCV polymerase (Hepatitis C virus genotype 1b, UniProt Q9WMX2); experiment: Polymerase assay of Biological Example 1 (IC50 values of Table 3); type: biochemical; conditions: IC50 values of Table 3, polymerase assay of Biological Example 1; read-out: NS5B-enzyme3
T1 construct: (His)6 (C); made in house; host or cells: XL-1 cells (E. coli, by own knowledge)

[2] = ET cells, luciferase activity 48 hours after compound

C[C@@H]1CCCN1c1ccc(S(=O)(=O)N2CC(=O)N(c3cc(-c4ccccc4)sc3C(=O)O)[C@@H](C3CCCCC3)C2)cn1 [Compound 131, 3-{(S)-2-Cyclohexyl-4-[6-((R)-2-methyl-pyrrolidin-1-yl)-pyridine-3-sulfonyl]-6-oxo-piperazin-1-yl}-5-phenyl-thiophene-2-carboxylic acid]
IC50 ([1]; between 100 nM and 5.0 uM): 100 to 5000 nM | IC50 (HCV polymerase): 261 nM

O=C(O)c1sc(-c2ccccc2)cc1N1C(=O)CN(S(=O)(=O)c2ccc(N3CCNCC3)nc2)C[C@@H]1C1CCCCC1 [Compound 132, 3-[(S)-2-Cyclohexyl-6-oxo-4-(6-piperazin-1-yl-pyridine-3-sulfonyl)-piperazin-1-yl]-5-phenyl-thiophene-2-carboxylic acid]
IC50 [1, 2]: ≥ 5000 nM | IC50 (HCV polymerase): 108 nM

O=C(O)c1sc(-c2ccccc2)cc1N1C(=O)CN(S(=O)(=O)c2ccc(N3CCCC3)nc2)C[C@H]1C1CCCCC1 [Compound 135, 3-[(R)-2-Cyclohexyl-6-oxo-4-(6-pyrrolidin-1-yl-pyridine-3-sulfonyl)-piperazin-1-yl]-5-phenyl-thiophene-2-carboxylic acid]
IC50 [1, 2]: ≤ 100 nM | IC50 (HCV polymerase): 2.33 nM

O=C(O)c1sc(-c2ccccc2)cc1N1C(=O)CN(S(=O)(=O)c2ccc(N3CCCC3)nc2)C[C@@H]1C1CCCCC1 [Compound 136, 3-[(S)-2-Cyclohexyl-6-oxo-4-(6-pyrrolidin-1-yl-pyridine-3-sulfonyl)-piperazin-1-yl]-5-phenyl-thiophene-2-carboxylic acid]
IC50 ([1]; between 100 nM and 5.0 uM): 100 to 5000 nM | IC50 (HCV polymerase): 260 nM

CN1CCN(c2ccc(S(=O)(=O)N3CC(=O)N(c4cc(-c5ccccc5)sc4C(=O)O)[C@H](C4CCCCC4)C3)cn2)CC1 [Compound 137, 3-{(R)-2-Cyclohexyl-4-[6-(4-methyl-piperazin-1-yl)-pyridine-3-sulfonyl]-6-oxo-piperazin-1-yl}-5-phenyl-thiophene-2-carboxylic acid]
IC50 [1, 2]: ≤ 100 nM | IC50 (HCV polymerase): 1.5 nM

CC1(N)CCN(c2ccc(S(=O)(=O)N3CC(=O)N(c4cc(-c5ccccc5)sc4C(=O)O)[C@H](C4CCCCC4)C3)cn2)CC1 [Compound 138, 3-[(R)-4-(4-Amino-4-methyl-3,4,5,6-tetrahydro-2H-[1,2′]bipyridinyl-5′-sulfonyl)-2-cyclohexyl-6-oxo-piperazin-1-yl]-5-phenyl-thiophene-2-carboxylic acid]
IC50 [1, 2]: ≤ 100 nM | IC50 (HCV polymerase): 1 nM

O=C(O)c1sc(-c2ccccc2)cc1N1C(=O)CN(S(=O)(=O)c2ccc(N3CCN[C@H](CO)C3)nc2)C[C@H]1C1CCCCC1 [Compound 139, 3-{(R)-2-Cyclohexyl-4-[6-((S)-3-hydroxymethyl-piperazin-1-yl)-pyridine-3-sulfonyl]-6-oxo-piperazin-1-yl}-5-phenyl-thiophene-2-carboxylic acid]
IC50 ([1]; between 100 nM and 5.0 uM): 100 to 5000 nM | IC50 (HCV polymerase): 1 nM

C[C@@H]1CN(c2ccc(S(=O)(=O)N3CC(=O)N(c4cc(-c5ccccc5)sc4C(=O)O)[C@H](C4CCCCC4)C3)cn2)CCN1 [Compound 140, 3-{(R)-2-Cyclohexyl-4-[6-((R)-3-methyl-piperazin-1-yl)-pyridine-3-sulfonyl]-6-oxo-piperazin-1-yl}-5-phenyl-thiophene-2-carboxylic acid]
IC50 [1, 2]: ≤ 100 nM | IC50 (HCV polymerase): 1 nM

N[C@@H]1CCN(c2ccc(S(=O)(=O)N3CC(=O)N(c4cc(-c5ccccc5)sc4C(=O)O)[C@H](C4CCCCC4)C3)cn2)C1 [Compound 141, 3-{(R)-4-[6-((R)-3-Amino-pyrrolidin-1-yl)-pyridine-3-sulfonyl]-2-cyclohexyl-6-oxo-piperazin-1-yl}-5-phenyl-thiophene-2-carboxylic acid]
IC50 [1, 2]: ≤ 100 nM | IC50 (HCV polymerase): 2 nM

N[C@H]1CCCN(c2ccc(S(=O)(=O)N3CC(=O)N(c4cc(-c5ccccc5)sc4C(=O)O)[C@H](C4CCCCC4)C3)cn2)C1 [Compound 142, 3-[(R)-4-((S)-3-Amino-3,4,5,6-tetrahydro-2H-[1,2′]bipyridinyl-5′-sulfonyl)-2-cyclohexyl-6-oxo-piperazin-1-yl]-5-phenyl-thiophene-2-carboxylic acid]
IC50 ([1]; between 100 nM and 5.0 uM): 100 to 5000 nM | IC50 (HCV polymerase): 2 nM

NCC1CCN(c2ccc(S(=O)(=O)N3CC(=O)N(c4cc(-c5ccccc5)sc4C(=O)O)[C@H](C4CCCCC4)C3)cn2)CC1 [Compound 143, 3-[(R)-4-(4-Aminomethyl-3,4,5,6-tetrahydro-2H-[1,2′]bipyridinyl-5′-sulfonyl)-2-cyclohexyl-6-oxo-piperazin-1-yl]-5-phenyl-thiophene-2-carboxylic acid]
IC50 [1, 2]: ≤ 100 nM | IC50 (HCV polymerase): 1.9 nM

N[C@H]1CCN(c2ccc(S(=O)(=O)N3CC(=O)N(c4cc(-c5ccccc5)sc4C(=O)O)[C@H](C4CCCCC4)C3)cn2)C1 [Compound 144, 3-{(R)-4-[6-((S)-3-Amino-pyrrolidin-1-yl)-pyridine-3-sulfonyl]-2-cyclohexyl-6-oxo-piperazin-1-yl}-5-phenyl-thiophene-2-carboxylic acid]
IC50 ([1]; between 100 nM and 5.0 uM): 100 to 5000 nM | IC50 (HCV polymerase): 2 nM

C[C@H]1CN(c2ccc(S(=O)(=O)N3CC(=O)N(c4cc(-c5ccccc5)sc4C(=O)O)[C@H](C4CCCCC4)C3)cn2)CCN1 [Compound 145, 3-{(R)-2-Cyclohexyl-4-[6-((S)-3-methyl-piperazin-1-yl)-pyridine-3-sulfonyl]-6-oxo-piperazin-1-yl}-5-phenyl-thiophene-2-carboxylic acid]
IC50 [1, 2]: ≤ 100 nM | IC50 (HCV polymerase): 1 nM

CC(C)(C)OC(=O)N[C@@H]1CCN(c2ccc(S(=O)(=O)N3CC(=O)N(c4cc(-c5ccccc5)sc4C(=O)O)[C@H](C4CCCCC4)C3)cn2)C1 [Compound 146, 3-{(R)-4-[6-((R)-3-tert-Butoxycarbonyl-amino-pyrrolidin-1-yl)-pyridine-3-sulfonyl]-2-cyclohexyl-6-oxo-piperazin-1-yl}-5-phenyl-thiophene-2-carboxylic acid]
IC50 [1, 2]: ≤ 100 nM | IC50 (HCV polymerase): 2 nM

CN(C)C1CCN(c2ccc(S(=O)(=O)N3CC(=O)N(c4cc(-c5ccccc5)sc4C(=O)O)[C@H](C4CCCCC4)C3)cn2)CC1 [Compound 147, 3-[(R)-2-Cyclohexyl-4-(4-dimethylamino-3,4,5,6-tetrahydro-2H-[1,2′]bipyridinyl-5′-sulfonyl)-6-oxo-piperazin-1-yl]-5-phenyl-thiophene-2-carboxylic acid]
IC50 [1, 2]: ≤ 100 nM | IC50 (HCV polymerase): 1 nM

CCN1CCN(c2ccc(S(=O)(=O)N3CC(=O)N(c4cc(-c5ccccc5)sc4C(=O)O)[C@H](C4CCCCC4)C3)cn2)CC1 [Compound 148, 3-{(R)-2-Cyclohexyl-4-[6-(4-ethyl-piperazin-1-yl)-pyridine-3-sulfonyl]-6-oxo-piperazin-1-yl}-5-phenyl-thiophene-2-carboxylic acid]
IC50 [1, 2]: ≤ 100 nM | IC50 (HCV polymerase): 2 nM

CC(C)(C)OC(=O)NCC1CCN(c2ccc(S(=O)(=O)N3CC(=O)N(c4cc(-c5ccccc5)sc4C(=O)O)[C@H](C4CCCCC4)C3)cn2)CC1 [Compound 149, 3-{(R)-4-[4-(tert-Butoxycarbonyl-amino-methyl)-3,4,5,6-tetrahydro-2H-[1,2′]bipyridinyl-5′-sulfonyl]-2-cyclohexyl-6-oxo-piperazin-1-yl}-5-phenyl-thiophene-2-carboxylic acid]
IC50 [1, 2]: ≤ 100 nM | IC50 (HCV polymerase): 3 nM

C[C@@H]1CN(c2ccc(S(=O)(=O)N3CC(=O)N(c4cc(-c5ccccc5)sc4C(=O)O)[C@H](C4CCCCC4)C3)cn2)C[C@H](C)N1 [Compound 150, 3-{(R)-2-Cyclohexyl-4-[6-((3R,5S)-3,5-dimethyl-piperazin-1-yl)-pyridine-3-sulfonyl]-6-oxo-piperazin-1-yl}-5-phenyl-thiophene-2-carboxylic acid]
IC50 [1, 2]: ≤ 100 nM | IC50 (HCV polymerase): 4 nM

C[C@@H]1CN(c2ccc(S(=O)(=O)N3CC(=O)N(c4cc(-c5ccccc5)sc4C(=O)O)[C@H](C4CCCCC4)C3)cn2)CCN1C(=O)OC(C)(C)C [Compound 151, (R)-4-{5-[(R)-4-(2-Carboxy-5-phenyl-thiophen-3-yl)-3-cyclohexyl-5-oxo-piperazine-1-sulfonyl]-pyridin-2-yl}-2-methyl-piperazine-1-carboxylic acid tert-butyl ester]
IC50 [1, 2]: ≤ 100 nM | IC50 (HCV polymerase): 3 nM

CC(C)(C)N1CCN(c2ccc(S(=O)(=O)N3CC(=O)N(c4cc(-c5ccccc5)sc4C(=O)O)[C@H](C4CCCCC4)C3)cn2)CC1 [Compound 152, 3-{(R)-4-[6-(4-tert-Butyl-piperazin-1-yl)-pyridine-3-sulfonyl]-2-cyclohexyl-6-oxo-piperazin-1-yl}-5-phenyl-thiophene-2-carboxylic acid]
IC50 [1, 2]: ≤ 100 nM | IC50 (HCV polymerase): 3 nM

CC1(NC(=O)OC(C)(C)C)CCN(c2ccc(S(=O)(=O)N3CC(=O)N(c4cc(-c5ccccc5)sc4C(=O)O)[C@H](C4CCCCC4)C3)cn2)CC1 [Compound 153, 3-[(R)-4-(4-tert-Butoxycarbonylamino-4-methyl-3,4,5,6-tetrahydro-2H-[1,2′]bipyridinyl-5′-sulfonyl)-2-cyclohexyl-6-oxo-piperazin-1-yl]-5-phenyl-thiophene-2-carboxylic acid]
IC50 ([1]; between 100 nM and 5.0 uM): 100 to 5000 nM | IC50 (HCV polymerase): 4 nM

CCC1CCCN1c1ccc(S(=O)(=O)N2CC(=O)N(c3cc(-c4ccccc4)sc3C(=O)O)[C@H](C3CCCCC3)C2)cn1 (stereo partly drawn) [Compound 154, 3-{(R)-2-Cyclohexyl-4-[6-(2-ethyl-pyrrolidin-1-yl)-pyridine-3-sulfonyl]-6-oxo-piperazin-1-yl}-5-phenyl-thiophene-2-carboxylic acid]
IC50 [1, 2]: ≤ 100 nM | IC50 (HCV polymerase): 3 nM

CN(C)C1CCCN(c2ccc(S(=O)(=O)N3CC(=O)N(c4cc(-c5ccccc5)sc4C(=O)O)[C@H](C4CCCCC4)C3)cn2)C1 (stereo partly drawn) [Compound 155, 3-[(R)-2-Cyclohexyl-4-(3-dimethylamino-3,4,5,6-tetrahydro-2H-[1,2′]bipyridinyl-5′-sulfonyl)-6-oxo-piperazin-1-yl]-5-phenyl-thiophene-2-carboxylic acid]
IC50 [1, 2]: ≤ 100 nM | IC50 (HCV polymerase): 3 nM
